In patent publication US20220281846A1, “COMPOUNDS AND COMPOSITIONS FOR THE TREATMENT OF RESPIRATORY DISEASES” (THE UNIVERSITY OF MELBOURNE, priority 2018, published 2022):
Several values for one entry are separate records, joined by “and”; a condition that tells them apart may be missing. Identical values can stand only once. Marks after values point to notes of the source that are not given here.

Assays:
[1] = In vivo determination of whole blood-to-plasma ratio; set-up: species or system male C57BL/6 mice; details: mouse blood, 15 min and 1 h post-dose
Protocol: Blood was collected from mice at 15 min and 1 h post-dose of each compound for the purposes of determining the whole blood-to-plasma (B/P) ratio. […] No adverse reactions or compound-related side effects observed in any mice during the 24 h sampling period after dosing any of the compounds. Plasma samples were also taken from 2 mice that were not administered test compound for use as analytical tool.
Analysis of B/P partitioning samples was conducted similarly and quantified against calibration standards samples prepared using a 1:1 v/v mixture of blank mouse blood and plasma. The matrix matched B/P partitioning samples and standards were processed using protein precipitation with acetonitrile as described above.
In Vivo Determination of Whole Blood-to-Plasma Ration
Blood was collected via cardiac puncture (whilst under gaseous isoflurane anaesthesia) into tubes containing heparin and stabilisation cocktail. The haematocrit was determined via centrifugation (13000×g for 4 min using a Clemets® Microhematocrit centrifuge and Safecap® Plain Self-sealing Mylar Wrapped capillary tubes), and values ranged from 38% to 40% for PF670462 and 38% to 44% for ZH3-138. […]
The B/P ratio was obtained by dividing the average measured concentration in blood by the average concentration measured in plasma following centrifugation of whole blood.

[2] = Mouse pharmacokinetics, IV and oral administration; format: in vivo; details: male C57BL/6 mice
Protocol: PF670462 (2HCl.0.4 mol. eq. isopropanol) and ZH3-138 (unionised) were administered to male C57BL/6 mice by IV (3 mg/kg) or orally (10 mg/kg). IV administration was achieved by bolus injection into the tail vein of mice using 1 mL syringe with 25G×1″ needle at a volume of 3 mL/kg. Oral administration was achieved by gavage needle at a volume of 3 mL/kg.
Intravenous (IV) and oral formulations were prepared using the same method. On the day of dosing, each of the solid compound was dissolved in DMSO to which an aqueous solution containing 10% Captisol was added. Hydrochloric acid (1 M) was used to modify pH for the formulation of ZH3-138 with the purpose of solubilising the compound (see Section B for the final pH of each formulation). The formulations of each compound were thoroughly vortexed, producing colourless solutions for all three compounds.
The systemic exposure of PF670462 and ZH3-138 was studied in non-fasted male C57BL/6 mice weighing 19.8-26.8 g. Mice had access to food and water ad libitum throughout the pre- and post-dose sampling period.
Compounds were dosed to mice by bolus injection into the lateral tail vein (3 mL/kg) for IV administration and by gavage (3 mL/kg) for oral administration. Following IV and oral administration, blood samples were collected up to 24 h (n=3 mice per time point) with a maximum of three samples from each mouse. Samples were collected via submandibular bleed (approximately 120 μL; conscious sampling). No urine samples were collected as mice were housed in bedded cages.
Blood was collected into polypropylene Eppendorf tubes containing heparin as anticoagulant and stabilisation cocktail (containing Complete® (a protease inhibitor cocktail) and potassium fluoride) to minimise the potential for ex vivo compound degradation in blood/plasma samples.
Once collected, blood samples were centrifuged immediately, supernatant plasma was removed, and stored at −80° C. until analysis by LC-MS.
Plasma samples were quantified against calibration standards prepared by spiking blank mouse plasma (50 μL) with solution standards (10 μL) obtained by diluting a stock solution of test compound (1 mg/mL in DMSO) with 50% acetonitrile in water. Diazepam (10 μL of 5 μg/mL in 50% acetonitrile/water) was added to all plasma calibration standards and samples as an internal standard (IS). The extraction of the test compound and IS from plasma was conducted using protein precipitation with acetonitrile. Protein precipitation was carried out by the addition of acetonitrile followed by vortexing and centrifugation (10,000 rpm) for 3 minutes to obtain supernatant for analysis using the LC-MS conditions described in Table 7.

Nc1nccc(-c2c(-c3ccc(F)cc3)ncn2C2CCCCC2)n1 [PF670462, reference compound]
apparent whole blood-to-plasma ratio (B/P) [1]: 1.0
apparent blood clearance [2]: moderate
apparent blood volume of distribution [2]: moderate
time post-dose for which plasma concentration was measurable (above LLQ) ([2]; 24 h sampling period): up to 4 h
Plasma Concentration, Mean ([2]; IV 2.42 mg/kg, 0.017 h): 15.5 µM
Plasma Concentration, Individual ([2]; IV 2.42 mg/kg, 0.017 h, 2.42 mg/kg): 18.4 µM and 10.9 µM and 17.3 µM
Plasma Concentration, Mean ([2]; IV 2.42 mg/kg, 0.033 h): 8.14 µM
Plasma Concentration, Individual ([2]; IV 2.42 mg/kg, 0.033 h, 2.42 mg/kg): 8.83 µM and 8.03 µM and 7.57 µM
Plasma Concentration, Mean ([2]; IV 2.42 mg/kg, 0.083 h): 6.09 µM
Plasma Concentration, Individual ([2]; IV 2.42 mg/kg, 0.083 h, 2.42 mg/kg): 5.58 µM and 5.99 µM and 6.70 µM
Plasma Concentration, Mean ([2]; IV 2.42 mg/kg, 0.25 h): 2.48 µM
Plasma Concentration, Individual ([2]; IV 2.42 mg/kg, 0.25 h, 2.42 mg/kg): 2.38 µM and 2.32 µM and 2.75 µM
Plasma Concentration, Mean ([2]; IV 2.42 mg/kg, 0.5 h): 0.851 µM
Plasma Concentration, Individual ([2]; IV 2.42 mg/kg, 0.5 h, 2.42 mg/kg): 0.900 µM and 0.566 µM and 1.09 µM
Plasma Concentration, Mean ([2]; IV 2.42 mg/kg, 1.0 h): 0.190 µM
Plasma Concentration, Individual ([2]; IV 2.42 mg/kg, 1.0 h, 2.42 mg/kg): 0.193 µM and 0.165 µM and 0.212 µM
Plasma Concentration, Mean ([2]; IV 2.42 mg/kg, 2.0 h): 0.253 µM
Plasma Concentration, Individual ([2]; IV 2.42 mg/kg, 2.0 h, 2.42 mg/kg): 0.0263 µM and 0.0207 µM and 0.0290 µM
Plasma Concentration, Mean ([2]; IV 2.42 mg/kg, 4.0 h): 0.00209 µM
Plasma Concentration, Individual ([2]; IV 2.42 mg/kg, 4.0 h, values only marginally below the LLQ, 2.42 mg/kg): 0.00222 ^a μM and 0.00134 ^a μM and 0.0027 ^a μM
Plasma Concentration, Mean ([2]; oral 10.1 mg/kg, 0.25 h): 1.25 µM
Plasma Concentration, Individual ([2]; oral 10.1 mg/kg, 0.25 h, 10.1 mg/kg): 1.45 µM and 0.873 µM and 1.44 µM
Plasma Concentration, Mean ([2]; oral 10.1 mg/kg, 0.50 h): 0.941 µM
Plasma Concentration, Individual ([2]; oral 10.1 mg/kg, 0.50 h, 10.1 mg/kg): 1.95 µM and 0.508 µM and 0.366 µM
Plasma Concentration, Mean ([2]; oral 10.1 mg/kg, 1.0 h): 0.292 µM
Plasma Concentration, Individual ([2]; oral 10.1 mg/kg, 1.0 h, 10.1 mg/kg): 0.260 µM and 0.340 µM and 0.277 µM
Plasma Concentration, Mean ([2]; oral 10.1 mg/kg, 2.0 h): 0.103 µM
Plasma Concentration, Individual ([2]; oral 10.1 mg/kg, 2.0 h, 10.1 mg/kg): 0.140 µM and 0.0641 µM and 0.104 µM
Plasma Concentration, Mean ([2]; oral 10.1 mg/kg, 4.0 h): 0.0165 µM
Plasma Concentration, Individual ([2]; oral 10.1 mg/kg, 4.0 h, 10.1 mg/kg): 0.0318 µM and 0.0106 µM and 0.00703 µM
apparent half-life ([2]; plasma): approximately 0.5 h
